One assay has as its target T1, Human recombinant PKCα (Homo sapiens, UniProt P17252).
T1 construct: purchased Oxford Biomedical Research
Briefly: Protein Kinase Cα assay. The assay is classed as biochemical. How it is done: (§1) The compounds of formula I are tested for their activity on different PKC isoforms according to a published method (D. Geiges et al. Biochem. Pharmacol. 1997; 53:865-875) The assay is performed in a 96-well polypropylene microtiterplate (Costar 3794) that has been previously siliconized with Sigmacote (Sigma SL-2). The reaction mixture (50 μl) contains 10 μl of the relevant PKC isozyme together with 25 μl of the test compound and 15 μl of a mix solution that contains 200 μg/ml protamine sulfate, 10 mM Mg(NO3)2, 10 μM ATP (Boehringer 519987) and 3750 Bq of ^33P-ATP (Hartmann Analytic SFC301, 110 TBq/mmol) in 20 mM Tris-buffer pH 7.4+0.1% BSA. Incubation is performed for 15 min at 32° C. in a microtiterplate shaking incubator (Biolabo Scientific Instruments). Reaction is stopped by adding 10 μl of 0.5 M Na2EDTA, pH 7.4. 50 μl of mixture are pipetted onto a pre-wetted phosphocellulose paper (Whatmann 3698-915) under gentle pressure. Non-incorporated ATP is washed away with 100 μl bi-dist H2O. The paper is washed twice in 0.5% H3PO4 for 15 min followed by 5 min in EtOH. Thereafter the paper is dryed and placed in an omnifilter (Packard 6005219), and overlayed with 10 μl/well of Microscint-O (Packard 6013611) before counting in a Topcount radioactivity counter (Packard). IC50 measurement is performed on a routine basis by incubating a serial dilution of inhibitor at concentrations ranging between 1-1000 μM according to the method described above. IC50 value are calculated from the graph by sigmoidal curve fitting.
Human recombinant PKCα was obtained from Oxford Biomedical Research and is used under the assay conditions as described under Section A.1 above. In this assay, compounds of formula I inhibit PKCα with an IC50≦1 μM.

Another assay has as its target Human recombinant PKCθ (Homo sapiens, UniProt Q04759). Description: Protein Kinase C θ assay. Format: biochemical. The method, then:
as §1
Human recombinant PKCθ is used under the assay conditions as described above. In this assay, compounds of formula I inhibit PKC θ with an IC50≦1 μM.

The target in a further assay is GSK-3β (Homo sapiens, UniProt P49841). Description: Inhibition of GSK-3β. The assay is classed as biochemical. The method, then:
The GSK-3β bidding assay is performed in 50 μl reactions in 96 well polypropylene plate, each reaction containing 20 mM magnesium chloride, 40 μM ATP, 2 mM DTT, 88.5 μM biotinylated and phosphorylated CREB-peptide substrate (biotin-KRREILSRRPS(PO4)YR—OH; Q. M. Wang et al., J. Biol. Chem. 269, 14566-14574, 1994), [γ-^33P]ATP (1 μCi) and 2 μl of the compound to be tested in DMSO (various concentrations). 15 μl of GSK-3β (various concentrations) is added and the mixture is incubated at 30° C. for 1 hour. The reaction is stopped by transferring 25 μl of the mixture to a phosphocellulose plate containing 130 μl of 1.85% phosphoric acid. The free radionucleotides in the membrane are washed off under vacuum with 1.85% phosphoric acid (5 times). After the last wash, the plate is transferred to an adaptor plate and 50 μl of scintillation cocktail (Microscint-20, Packard, cat. # 20-133) is added to each well and the amount of radioactivity is counted in a top counter. Compounds of formula I are active in this assay.

In assay [1] the test system is Jurkat cells transfected with a human interleukin-2 promoter/reporter gene construct. Briefly: CD28 costimulation assay (IL-2 promoter/luciferase reporter). The assay is classed as cell-based. The note with it: stimulated Jurkat cells, luciferase reporter. How it is done:
The assay is performed with Jurkat cells transfected with a human interleukin-2 promoter/reporter gene construct as described by Baumann G et al. in Transplant Proc. 1992; 24:43-8, the β-galactosidase reporter gene being replaced by the luciferase gene (de Wet J., et al., Mol. Cell Biol. 1987, 7(2), 725-737). Cells are stimulated by solid phase-coupled antibodies or phorbol myristate acetate (PMA) and the Ca^++ ionophore ionomycin as follows. For antibody-mediated stimulation Microlite TM1 microtiter plates (Dynatech) are coated with 3 μg/ml goat anti-mouse IgG Fc antibodies (Jackson) in 55 μl phosphate-buffered saline (PBS) per well for three hours at RT. Plates are blocked after removing the antibodies by incubation with 2% bovine serum albumin (BSA) in PBS (300 μl per well) for 2 hours at RT. After washing three times with 300 μl PBS per well, 10 ng/ml anti-T cell receptor antibodies (WT31, Becton & Dickinson) and 300 ng/ml anti-CD28 antibodies (15E8) in 50 μl 2% BSA/PBS are added as stimulating antibodies and incubated overnight at 4° C. Finally the plates are washed three times with 300 μl PBS per well. Seven three-fold serial dilutions of test compounds in duplicates in assay medium (RPMI 1640/10% fetal calf serum (FCS) containing 50 μM 2-mercaptoethanol, 100 units/ml penicillin and 100 μg/ml streptomycin) are prepared in separate plates, mixed with transfected Jurkat cells (clone K22 290_H23) and incubated for 30 minutes at 37° C. in 5% CO2. […] After incubation for 5.5 hours at 37° C. in 5% CO2, the level of luciferase is determined by bioluminescence measurement. […] Luciferase activity is assessed with a bioluminescence reader (Labsystem, Helsinki, Finland) after automatic addition of 50 μl per well luciferase reaction buffer containing 20 mM Tricine, 1.07 mM (MgCO3)4Mg(OH)2×5H2O, 2.67 mM MgSO4, 0.1 mM EDTA, 33.3 mM DTT, 270 μM coenzyme A, 470 μM luciferin (Chemie Brunschwig AG), 530 μM ATP, pH 7.8. […] The inhibition obtained in the presence of a test compound is calculated as percent inhibition of the high control. […]
Background: In a reporter assay the amount or activity of a reporter protein is the signal.

The test system of a further assay is lymph node enlargement. Description: Graft v. host model. Format: in vivo, rat. The note with it: days 0-3, lymph nodes removed day 7. The method, then: Spleen cells (2×10^7) from Wistar/F rats are injected subcutaneously into the right hind footpad of (Wistar/F×Fischer 344)F1 hybrid rats. The left footpad is left untreated. The animals are treated with the test compounds on 4 consecutive days (0-3). The popliteal lymph nodes are removed on day 7, and the weight differences between two corresponding lymph nodes are determined. The results are expressed as the inhibition of lymph node enlargement (given in percent) comparing the lymph node weight differences in the experimental groups to the weight difference between the corresponding lymph nodes from a group of animals left untreated with a test compound. In this assay, an inhibition of 100% is obtained with compound of Example 1 or 10 when administered at a dose of 30 or 10 mg/kg bid, respectively.

The target in another assay is T2, Human recombinant PKCβ1 (Homo sapiens, UniProt P05771).
T2 construct: purchased Oxford Biomedical Research
Briefly: Protein Kinase Cβ1 assay. Format: biochemical. How it is done: as §1
Human recombinant PKCβ1 was obtained from Oxford Biomedical Research and is used under the assay conditions as described under Section A.1 above. In this assay, compounds of formula I inhibit PKCβ1 with an IC50≦1 μM.

Another assay deals with T3, Human recombinant PKCη (Homo sapiens, UniProt P24723).
T3 construct: purchased PanVera
Briefly: Protein Kinase Cη assay. The assay is classed as biochemical. The method, then:
as §1, with “IC50 measurement is performed on a routine basis by incubating a serial dilution of inhibitor at concentrations ranging between 1-1000 μM according to the method described above.” left out, “fitting. […]” for “fitting.”

In assay [2] the test system is spleen cells from CBA and BALB/c mice. Briefly: Allogeneic mixed lymphocyte reaction (MLR). Format: cell-based. The settings on record: Mus musculus, two-way MLR, 3H-thymidine incorporation. The method, then:
The two-way MLR is performed according to standard procedures (J. Immunol. Methods, 1973, 2, 279 and Meo T. et al., Immunological Methods, New York, Academic Press, 1979, 227-39). Briefly, spleen cells from CBA and BALB/c mice (1.6×10^5 cells from each strain per well in flat bottom tissue culture microtiter plates, 3.2×10^5 in total) are incubated in RPMI medium containing 10% FCS, 100 U/ml penicillin, 100 μg/ml streptomycin (Gibco BRL, Basel, Switzerland), 50 μM 2-mercaptoethanol (Fluka, Buchs, Switzerland) and serially diluted compounds. Seven three-fold dilution steps in duplicates per test compound are performed. After four days of incubation 1 μCi ^3H-thymidine is added. Cells are harvested after an additional five-hour incubation period, and incorporated ^3H-thymidine is determined according to standard procedures. Background values (low control) of the MLR are the proliferation of BALB/c cells alone. Low controls are subtracted from all values. High controls without any sample are taken as 100% proliferation. Percent inhibition by the samples is calculated, and the concentrations required for 50% inhibition (IC50 values) are determined.
A general note: Dividing cells build labelled thymidine or BrdU into new DNA.

A further assay has as its target T4, Human recombinant PKCδ (Homo sapiens, UniProt Q05655).
T4 construct: purchased Oxford Biomedical Research
Briefly: Protein Kinase Cδ assay. The assay is classed as biochemical. The method, then: as §1, with “IC50 measurement is performed on a routine basis by incubating a serial dilution of inhibitor at concentrations ranging between 1-1000 μM according to the method described above.” left out, “fitting. […]” for “fitting.”

The target in the next assay is T5, Human recombinant PKCε (Homo sapiens, UniProt Q02156).
T5 construct: purchased Oxford Biomedical Research
T5 sequence (Q02156 1-737): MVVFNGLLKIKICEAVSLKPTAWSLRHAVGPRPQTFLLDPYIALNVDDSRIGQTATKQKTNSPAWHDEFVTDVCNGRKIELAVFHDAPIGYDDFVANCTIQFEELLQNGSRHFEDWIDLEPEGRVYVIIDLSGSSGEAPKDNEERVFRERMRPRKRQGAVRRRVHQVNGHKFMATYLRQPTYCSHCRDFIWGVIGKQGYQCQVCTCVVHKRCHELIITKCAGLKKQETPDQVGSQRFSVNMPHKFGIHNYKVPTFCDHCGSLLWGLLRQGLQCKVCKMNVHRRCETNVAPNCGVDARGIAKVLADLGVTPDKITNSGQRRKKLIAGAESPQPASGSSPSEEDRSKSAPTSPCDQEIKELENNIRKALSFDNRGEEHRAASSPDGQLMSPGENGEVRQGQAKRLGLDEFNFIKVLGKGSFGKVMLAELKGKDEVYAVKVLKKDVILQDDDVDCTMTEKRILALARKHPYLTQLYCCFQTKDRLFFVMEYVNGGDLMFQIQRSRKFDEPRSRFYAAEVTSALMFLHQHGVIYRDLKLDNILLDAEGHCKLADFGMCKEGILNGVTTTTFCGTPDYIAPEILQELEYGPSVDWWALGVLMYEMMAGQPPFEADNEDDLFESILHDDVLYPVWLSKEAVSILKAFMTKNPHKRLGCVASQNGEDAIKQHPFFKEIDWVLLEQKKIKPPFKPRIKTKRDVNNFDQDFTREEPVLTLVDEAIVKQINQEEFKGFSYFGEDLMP
Description: Protein Kinase Cε assay. Format: biochemical. The settings on record: read-out: IC50 in Protein Kinase Cε assay (sentence prints PKCδ). The method, then: as §1, with “IC50 measurement is performed on a routine basis by incubating a serial dilution of inhibitor at concentrations ranging between 1-1000 μM according to the method described above.” left out, “fitting. […]” for “fitting.”

SMILES strings stand for the structures.

As usually defined, the IC50 is the concentration at which inhibition is half-maximal.

T2 sequence (P05771 whole entry): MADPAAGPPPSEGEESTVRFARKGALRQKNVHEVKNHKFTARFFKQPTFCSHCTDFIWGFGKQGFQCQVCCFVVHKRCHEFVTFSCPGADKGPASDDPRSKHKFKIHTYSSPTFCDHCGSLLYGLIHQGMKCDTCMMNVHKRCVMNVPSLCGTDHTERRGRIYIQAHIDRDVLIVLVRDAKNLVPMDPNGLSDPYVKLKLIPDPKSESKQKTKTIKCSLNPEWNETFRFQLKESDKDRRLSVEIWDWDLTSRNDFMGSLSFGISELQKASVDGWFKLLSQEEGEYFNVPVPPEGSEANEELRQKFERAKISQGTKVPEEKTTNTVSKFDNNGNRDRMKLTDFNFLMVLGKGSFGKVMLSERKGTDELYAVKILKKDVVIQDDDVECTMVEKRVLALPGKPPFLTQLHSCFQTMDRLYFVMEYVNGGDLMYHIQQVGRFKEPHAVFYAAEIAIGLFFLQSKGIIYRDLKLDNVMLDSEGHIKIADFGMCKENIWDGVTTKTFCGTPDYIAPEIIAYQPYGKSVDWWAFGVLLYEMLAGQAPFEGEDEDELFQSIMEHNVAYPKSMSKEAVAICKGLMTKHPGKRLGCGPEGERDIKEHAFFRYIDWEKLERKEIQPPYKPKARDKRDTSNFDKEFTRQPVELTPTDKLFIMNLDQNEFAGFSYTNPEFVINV
Sequence of Human recombinant PKCθ (Q04759 whole entry): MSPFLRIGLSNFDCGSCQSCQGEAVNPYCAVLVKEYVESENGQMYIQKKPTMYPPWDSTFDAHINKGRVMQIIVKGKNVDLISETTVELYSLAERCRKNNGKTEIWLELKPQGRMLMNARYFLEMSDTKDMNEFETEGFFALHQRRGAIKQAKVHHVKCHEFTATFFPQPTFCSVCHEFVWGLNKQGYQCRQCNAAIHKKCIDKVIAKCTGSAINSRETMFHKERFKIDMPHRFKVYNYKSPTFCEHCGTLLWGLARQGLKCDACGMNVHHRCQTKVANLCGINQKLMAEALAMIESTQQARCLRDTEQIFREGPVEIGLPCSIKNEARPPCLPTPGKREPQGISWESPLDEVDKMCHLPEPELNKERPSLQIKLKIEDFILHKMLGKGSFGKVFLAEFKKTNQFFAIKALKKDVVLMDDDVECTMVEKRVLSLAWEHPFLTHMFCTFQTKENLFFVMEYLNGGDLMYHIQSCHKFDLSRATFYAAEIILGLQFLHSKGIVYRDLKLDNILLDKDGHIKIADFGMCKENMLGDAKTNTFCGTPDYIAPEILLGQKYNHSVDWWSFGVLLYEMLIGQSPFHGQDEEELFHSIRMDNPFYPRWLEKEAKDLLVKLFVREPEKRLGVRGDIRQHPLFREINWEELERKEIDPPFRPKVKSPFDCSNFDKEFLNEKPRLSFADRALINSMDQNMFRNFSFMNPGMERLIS
T3 sequence (P24723 whole entry): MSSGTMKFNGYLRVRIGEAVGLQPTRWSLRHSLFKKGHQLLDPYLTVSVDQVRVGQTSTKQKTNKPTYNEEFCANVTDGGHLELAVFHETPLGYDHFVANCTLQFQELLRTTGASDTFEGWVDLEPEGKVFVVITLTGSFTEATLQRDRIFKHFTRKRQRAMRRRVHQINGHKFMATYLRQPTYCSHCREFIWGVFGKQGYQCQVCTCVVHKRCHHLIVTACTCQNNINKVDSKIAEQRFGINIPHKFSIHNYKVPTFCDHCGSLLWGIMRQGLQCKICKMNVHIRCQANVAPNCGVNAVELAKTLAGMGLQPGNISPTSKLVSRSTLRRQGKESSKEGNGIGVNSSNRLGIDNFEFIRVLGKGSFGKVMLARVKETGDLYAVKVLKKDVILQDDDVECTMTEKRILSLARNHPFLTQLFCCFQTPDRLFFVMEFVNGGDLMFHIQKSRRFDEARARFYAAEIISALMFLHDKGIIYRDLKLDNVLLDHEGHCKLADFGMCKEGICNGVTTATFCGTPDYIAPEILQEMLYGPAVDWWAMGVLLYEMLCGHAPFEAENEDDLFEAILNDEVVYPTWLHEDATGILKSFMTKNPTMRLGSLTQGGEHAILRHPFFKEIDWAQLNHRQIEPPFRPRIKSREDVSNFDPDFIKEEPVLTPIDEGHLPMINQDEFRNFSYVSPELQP
T4 sequence (Q05655 whole entry): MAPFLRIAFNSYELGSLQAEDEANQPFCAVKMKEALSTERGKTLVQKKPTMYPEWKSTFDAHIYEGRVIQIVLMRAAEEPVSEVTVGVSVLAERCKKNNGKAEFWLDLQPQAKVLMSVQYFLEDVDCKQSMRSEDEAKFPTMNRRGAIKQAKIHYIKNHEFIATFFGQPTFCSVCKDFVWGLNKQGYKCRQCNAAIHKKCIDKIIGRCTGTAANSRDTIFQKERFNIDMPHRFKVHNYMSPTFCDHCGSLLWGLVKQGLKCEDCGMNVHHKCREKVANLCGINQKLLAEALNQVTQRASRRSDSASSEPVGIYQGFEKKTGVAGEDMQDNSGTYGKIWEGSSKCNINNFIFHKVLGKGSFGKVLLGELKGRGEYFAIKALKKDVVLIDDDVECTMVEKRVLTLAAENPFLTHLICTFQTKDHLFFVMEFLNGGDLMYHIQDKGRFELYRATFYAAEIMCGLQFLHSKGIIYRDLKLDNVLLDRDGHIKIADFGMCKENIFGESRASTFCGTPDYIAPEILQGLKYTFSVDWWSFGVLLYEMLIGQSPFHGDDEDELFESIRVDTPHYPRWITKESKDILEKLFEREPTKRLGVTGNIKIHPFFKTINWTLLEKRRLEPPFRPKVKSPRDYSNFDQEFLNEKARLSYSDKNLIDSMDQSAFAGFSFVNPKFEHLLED
Sequence of GSK-3β (P49841 whole entry, species assumed): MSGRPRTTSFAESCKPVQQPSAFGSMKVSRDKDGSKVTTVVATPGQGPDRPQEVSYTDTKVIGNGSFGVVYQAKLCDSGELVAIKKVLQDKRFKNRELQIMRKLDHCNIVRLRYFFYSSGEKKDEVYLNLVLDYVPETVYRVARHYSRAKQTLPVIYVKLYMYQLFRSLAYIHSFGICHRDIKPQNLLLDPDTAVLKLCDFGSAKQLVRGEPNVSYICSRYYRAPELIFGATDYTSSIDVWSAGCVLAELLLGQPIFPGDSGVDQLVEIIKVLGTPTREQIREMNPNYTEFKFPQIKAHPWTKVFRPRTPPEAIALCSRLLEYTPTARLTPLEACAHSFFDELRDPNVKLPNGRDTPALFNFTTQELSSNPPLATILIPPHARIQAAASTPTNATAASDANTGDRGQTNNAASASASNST

With `CN1CCN(c2ccc(C(F)(F)F)c(C3=C(c4c[nH]c5ccccc45)C(=O)NC3=O)n2)CC1` [Example 1, 3-(1H-Indol-3-yl)-4-[6-(4-methyl-piperazin-1-yl)-3-tifluoromethyl-pyridin-2-yl]-pyrrole-2,5-dione], the IC50 on Human recombinant PKCα turned out to be 2.9 nM; at Human recombinant PKCθ, 5.4 nM; at GSK-3β, 18 nM; in assay [1], 13 nM; on Human recombinant PKCβ1 it was 5.9 nM; at Human recombinant PKCη it was 15.3 nM. The IC50 was determined as 28.8 nM in assay [2], 21 nM on Human recombinant PKCδ and 14.7 nM on Human recombinant PKCε. Also, the “inhibition of lymph node enlargement” value in the assay with lymph node enlargement (30 mg/kg bid) is given as 100%.

For `CN1CCN(c2ccc(Cl)c(C3=C(c4c[nH]c5ccccc45)C(=O)NC3=O)n2)CC1` [Example 10], the IC50 at Human recombinant PKCθ was 5.8 nM. Further, the “inhibition of lymph node enlargement” value with lymph node enlargement (10 mg/kg bid) is listed as 100%.

For the molecule `CN(C)Cc1cc2c(C3=C(c4cn(C)c5ccccc45)C(=O)NC3=O)cccc2[nH]1` [Example 39], the IC50 on Human recombinant PKCα worked out at 6.3 nM; in assay [1], 46.7 nM; on Human recombinant PKCβ1, 13.2 nM; in [2], 285 nM.

For the molecule `Cc1cccc2c(C3=C(c4c(Cl)ccc5[nH]c(CN(C)C)cc45)C(=O)NC3=O)c[nH]c12` [Example 41], the IC50 at Human recombinant PKCα worked out at 7.5 nM; on Human recombinant PKCθ, 9.3 nM; at GSK-3β, 25 nM; in assay [1] it was 28.3 nM; on Human recombinant PKCβ1, 14.9 nM; at Human recombinant PKCη, 15 nM. Moreover, the figures for the half-inhibitory concentration (IC50) (in [2]; at Human recombinant PKCδ; on Human recombinant PKCε) were 32.5 nM, 29.5 nM and 7.6 nM, respectively.

Source of the values: US7820672B2, “Indolylmaleimide derivatives” (Novartis AG, priority 2003, dated 2010).
